# Reference: patent publication US20190255073A1, “ESTERS OF 3-POLYAMINE DERIVATIVES OF BILE ACIDS FOR THE TREATMENT OF INFECTIONS” (VIRBAC, priority 2016, published 2019)
# How the values were obtained:
# [1] = tested on: S. aureus ATCC25923; assay: MIC determination by microplate dilution, S. aureus human strain; format: cell-based, Staphylococcus aureus; conditions: Staphylococcus aureus, ATCC25923, Gram-positive, Mueller-Hinton medium, 24 h, 37° C.
# Procedure: (§1) 1) Preparation of the Preculture
# (§2) A negative control (2 mL of sterile culture medium)
# (§3) A positive control (1940 μL of culture medium+40 μL of DMSO+20 μL of bacterial suspension) from a thawed biological strain (the biological strains are stored at −80° C. in glycerol).
# (§4) The tubes were incubated at 37° C. for 24 hours at 100 rpm.
# (§5) The microorganisms were handled under a type L2 laboratory fume cupboard and, before any handling, a UV cycle was programmed and only sterile material was used. […] The chemical compounds to be tested were prepared in a DMSO/methanol mixture (50/50) at a concentration of 5 mg/mL.
# (§6) 2) Preparation of the Microplate for the Determination of the Minimum Inhibitory Concentration (MIC)
# (§7) After 24 hours of incubation, a measurement of the optical density was taken using a spectrophotometer at 600 nm, collecting 100 μL of the bacterial suspension diluted in 900 μL of the sterile culture medium. This test required the use of a 96-well plate and the required volume of the microbial suspension to be seeded was calculated for an OD corresponding to a value equal to 0.01 in each well. In this plate, the first line corresponded to the negative control (195 μL of sterile culture medium in each well), the second line to the positive control (seeded culture medium supplemented with 2% of DMSO), the third line was loaded twice with bacterial suspension, 8 μL of test product were placed in each well. Thereafter, a 0.5 cascade dilution was performed from this line.
# (§8) The first column served as inhibition control. A sterile filter was then placed on the microplate, allowing the passage of gases but not of contaminants. The microplate was incubated at 37° C. under a humid atmosphere for 24 hours.
# (§9) NB: The medium used is Mueller-Hinton (MH) medium for bacteria. All the tests were performed in duplicate.
# (§10) 4) Reading of the Results
# (§11) After incubation, the filter was replaced with a transparent film, and an OD reading was then taken in an iEMS plate spectrophotometer at 620 nm. Calculation of the minimum inhibitory concentration (MIC) was performed.
# [2] = tested on: CHO-K1 cells; assay: WST1 cytotoxicity test on CHO-K1 cells; format: cell-based, Chinese hamster; conditions: Cricetulus griseus, CHO-K1, 24 h, read-out: IC50 (μg/mL) CHO
# Procedure: Test WST1 was used to measure the cytotoxic activity of the products. This is a colorimetric test which makes it possible to measure the viability and the degree of cell proliferation. It is based on cleavage of the colorless tetrazolium salts WST-1 (4-[3-(4-iodophenyl)-2-(4-nitrophenyl)-2H-5-tetrazolio]-1,3-benzene disulfonate) with mitochondrial dehydrogenases to the yellow-colored formazan derivative, which may be quantified by spectrophotometry at 420-480 nm.
# The WST1 test was performed on Chinese hamster ovary cells. The CHO-K1 cells (ATCC, USA) are kept in culture on McCoy's 5A medium supplemented with 10% fetal calf serum, 2 mM of L-glutamine and a mixture of penicillin-streptomycin (100 U/ml: 10 μg/mL). The culture is incubated at 37° C. under an atmosphere enriched in CO2 (5%), and subcultured every two days.
# The cells are transferred into 96-well plates (25 000 cells/mL) in whole McCoy's 5A medium, and maintained for 24 hours at 37° C. under a humid atmosphere enriched in CO2 (5%). Increasing concentrations of test products are added to the wells in double tests and 8 growth controls containing the cells in the medium alone are included in each series of tests. After 24 hours at 37° C. (5% CO2), the culture medium is removed, the cells are rinsed in phosphate buffer (PBS) and 50 μL of PBS containing 10% of reagent WST1 are added to each well. After 20 minutes of incubation at 37° C., the results are read by spectrophotometry at 450 nm.
# The results are expressed in dose-response relationships, modeled by nonlinear regression analysis using the TableCurve software. The 50% inhibitory concentration (IC50) represents the concentration of product that is capable of reducing the cell viability by 50%.
# [3] = tested on: P. aeruginosa (1051575); assay: MIC determination by microplate dilution, P. aeruginosa animal strain; format: cell-based, Pseudomonas aeruginosa; conditions: Pseudomonas aeruginosa, Gram-negative, Mueller-Hinton medium, 24 h, 37° C.
# Procedure: as §1, §2, §3, §4, §5, §6, §7, §8, §9, §10, §11
# [4] = tested on: S. aureus (340); assay: MIC determination by microplate dilution, S. aureus animal strain; format: cell-based, Staphylococcus aureus; conditions: Staphylococcus aureus, Gram-positive, Mueller-Hinton medium, 24 h, 37° C.
# Procedure: as §1, §2, §3, §4, §5, §6, §7, §8, §9, §10, §11
# [5] = tested on: E. faecalis ATCC29212; assay: MIC determination by microplate dilution, E. faecalis human strain; format: cell-based, Enterococcus faecalis; conditions: Enterococcus faecalis, ATCC29212, Gram-positive, Mueller-Hinton medium, 24 h, 37° C.
# Procedure: as §1, §2, §3, §4, §5, §6, §7, §8, §9, §10, §11
# [6] = tested on: E. coli ATCC28922; assay: MIC determination by microplate dilution, E. coli human strain; format: cell-based, Escherichia coli; conditions: Escherichia coli, ATCC28922, Gram-negative, Mueller-Hinton medium, 24 h, 37° C.
# Procedure: as §1, §2, §3, §4, §5, §6, §7, §8, §9, §10, §11
# [7] = tested on: S. intermedius (1051997); assay: MIC determination by microplate dilution, S. intermedius animal strain; format: cell-based, Staphylococcus intermedius; conditions: Staphylococcus intermedius, Gram-positive, Mueller-Hinton medium, 24 h, 37° C.
# Procedure: as §1, §2, §3, §4, §5, §6, §7, §8, §9, §10, §11
# [8] = tested on: E. coli (1956); assay: MIC determination by microplate dilution, E. coli animal strain; format: cell-based, Escherichia coli; conditions: Escherichia coli, Gram-negative, Mueller-Hinton medium, 24 h, 37° C.
# Procedure: as §1, §2, §3, §4, §5, §6, §7, §8, §9, §10, §11
# [9] = tested on: P. aeruginosa (1051575); assay: Potentiation of the doxycycline activity at 2 μg/mL; format: cell-based, Pseudomonas aeruginosa; conditions: in combination with doxycycline 2 μg/mL; 24 h, 37°
# [10] = tested on: P. aeruginosa ATCC27853; assay: MIC determination by microplate dilution, P. aeruginosa human strain; format: cell-based, Pseudomonas aeruginosa; conditions: Pseudomonas aeruginosa, ATCC27853, Gram-negative, Mueller-Hinton medium, 24 h, 37° C.
# Procedure: as §1, §2, §3, §4, §5, §6, §7, §8, §9, §10, §11
SMILES,MIC [1] [µg/mL],IC50 [2] [µg/mL],MIC [3] [µg/mL],MIC [4] [µg/mL],MIC [5] [µg/mL],MIC [6] [µg/mL],MIC [7] [µg/mL],MIC [8] [µg/mL],MIC - P. aeruginosa (1051575): content of compound of formula (I) to restore the doxycycline activity (at 2 μg/mL) [9] [µg/mL],MIC [10] [µg/mL]
"CC(C)OC(=O)CC[C@@H](C)[C@H]1CCC2C3CCC4C[C@@H](NCCCN(CCCN)CCCN)CC[C@]4(C)C3C[C@H](O)[C@@]21C (stereo partly drawn) [(28), isopropyl 3β-(tris(3-aminopropyl)amine)deoxycholate]",15,85,30,15,30,15,8,30,2,30
"CC(C)OC(=O)CC[C@@H](C)[C@H]1CCC2C3CCC4C[C@@H](NCCCN(C)CCCN)CC[C@]4(C)C3C[C@H](O)[C@@]21C (stereo partly drawn) [(30), isopropyl 3β-(bis(3-aminopropyl)methylamine)deoxycholate]",28,–,56,28,56,28,14,56,7,56
"CC(C)OC(=O)CC[C@@H](C)[C@H]1CCC2C3C(C[C@H](O)[C@@]21C)[C@@]1(C)CC[C@H](NCCCN(CCCN)CCCN)CC1C[C@H]3O (stereo partly drawn) [(34), isopropyl 3β-(tris(3-aminopropyl)amine)cholate]",15,–,30,15,30,30,7,30,4,30
"COC(=O)CC[C@@H](C)[C@H]1CCC2C3C(CC[C@@]21C)[C@@]1(C)CC[C@H](NCCCN(C)CCCN)CC1C[C@H]3O (stereo partly drawn) [(37), methyl 3β-(bis(3-aminopropyl)methylamine)chenodeoxycholate]",27,115,13,27,13,27,> 107,13,3,27
"CC(C)OC(=O)CC[C@@H](C)[C@H]1CCC2C3C(CC[C@@]21C)[C@@]1(C)CC[C@H](NCCCN(C)CCCN)CC1C[C@H]3O (stereo partly drawn) [(41), isopropyl 3β-(bis(3-aminopropyl)methylamine)chenodeoxycholate]",14,4,28,14,28,56,7,28,4,28
"COC(=O)CC[C@@H](C)[C@H]1CCC2C3C(CC[C@@]21C)[C@@]1(C)CC[C@H](NCCNCCNCCNCCNCCN)CC1C[C@@H]3O (stereo partly drawn) [(50), methyl 3β-(pentaethylenehexamine)ursodeoxycholate]",30,45,60,30,60,60,8,60,16,60
